The term Ki denotes a dissociation constant, usually derived from enzyme kinetics or from competition with a known ligand. The low end stands for tighter binding, the high end for weaker binding. A word on the IC50: it is the point on the concentration scale where inhibition reaches its midpoint. Broadly, the EC50 is the concentration giving half of the maximal effect. A low value points to an effect from little substance.

The results in this text go back to ChEMBL document CHEMBL1132051, “4-Alkyl- and 3,4-dialkyl-1,2,3,4-tetrahydro-8-pyridono[5,6-g]quinolines: potent, nonsteroidal androgen receptor agonists” (Bioorg Med Chem Lett, 1999).

Test [1] addresses T1, Androgen receptor (Homo sapiens, UniProt P10275).
T1 sequence (P10275 whole entry): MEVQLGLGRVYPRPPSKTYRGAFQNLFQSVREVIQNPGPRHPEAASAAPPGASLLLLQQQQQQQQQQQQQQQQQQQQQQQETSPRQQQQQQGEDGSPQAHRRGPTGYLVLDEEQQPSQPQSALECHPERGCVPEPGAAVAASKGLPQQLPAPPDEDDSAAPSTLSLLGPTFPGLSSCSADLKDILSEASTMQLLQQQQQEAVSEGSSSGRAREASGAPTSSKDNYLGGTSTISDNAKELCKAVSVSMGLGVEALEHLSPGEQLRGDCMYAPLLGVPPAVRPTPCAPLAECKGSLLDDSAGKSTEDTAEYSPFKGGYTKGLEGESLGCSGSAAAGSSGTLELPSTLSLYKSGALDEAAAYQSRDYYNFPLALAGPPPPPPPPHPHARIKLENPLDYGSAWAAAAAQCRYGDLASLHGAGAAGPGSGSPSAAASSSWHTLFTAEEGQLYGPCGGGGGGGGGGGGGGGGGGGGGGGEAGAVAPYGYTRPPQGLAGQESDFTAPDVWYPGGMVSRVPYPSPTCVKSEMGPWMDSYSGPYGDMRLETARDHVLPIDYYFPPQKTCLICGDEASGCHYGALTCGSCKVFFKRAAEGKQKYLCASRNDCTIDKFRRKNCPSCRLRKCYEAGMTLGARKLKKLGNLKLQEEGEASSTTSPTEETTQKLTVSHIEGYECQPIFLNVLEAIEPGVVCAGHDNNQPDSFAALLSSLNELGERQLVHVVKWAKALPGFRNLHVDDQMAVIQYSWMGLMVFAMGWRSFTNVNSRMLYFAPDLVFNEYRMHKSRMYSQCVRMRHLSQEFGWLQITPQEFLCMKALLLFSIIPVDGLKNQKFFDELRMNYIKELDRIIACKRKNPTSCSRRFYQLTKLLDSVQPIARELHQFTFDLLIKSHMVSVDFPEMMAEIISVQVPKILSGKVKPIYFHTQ
Description: Binding affinity to the human androgen receptor (hAR), using [3H]DHT as radioligand in a competitive binding assay

Test [2] deals with T1, Androgen receptor. This is another data set of the same source.
Description: Antagonistic activity against human androgen receptor (hAR) in CV-1 cells using cotransfection assay
The target in test [3] is T1, Androgen receptor. This is another data set of the same source.
Description: Agonist activity to the human androgen receptor (hAR) in CV-1 cells
The target of test [4] is T1, Androgen receptor. Put plainly: Antagonistic activity against human androgen receptor (hAR) in CV-1 cells was determined as a function of maximal inhibition of dihydrotestosterone using cotransfection assay. Format: functional, cell-based.

With `CCCC1CCNc2cc3nc(O)cc(C(F)(F)F)c3cc21` (stereo unspecified), affinity on Androgen receptor [1] was put at a Ki of 0.029 µM. At Androgen receptor [2], this compound yielded an IC50 of more than 10 µM. The compound further yielded a half-maximal effective concentration (EC50) at Androgen receptor [3] of 0.019 µM.
The corresponding values for `Oc1cc(C(F)(F)F)c2cc3c(cc2n1)NC[C@@H]1CCCC[C@H]31` are 0.002 µM, more than 10 µM and 0.003 µM.
`CCC1CCN(C=O)c2cc3nc(O)cc(C(F)(F)F)c3cc21` (stereo unspecified) had a Ki at Androgen receptor [1] of more than 1 µM. The same compound came in with an EC50 on Androgen receptor [3] of 0.137 µM. Moreover, at Androgen receptor [4], the IC50 is more than 10 µM.
At Androgen receptor [1], `CC(C)C1CCNc2cc3[nH]c(=O)cc(C(F)(F)F)c3cc21` (stereo unspecified) came in with a Ki of 0.013 µM. Also, at Androgen receptor [2], the IC50 was more than 10 µM. Further, the EC50 at Androgen receptor [3] turned out to be 0.003 µM.
`Oc1cc(C(F)(F)F)c2cc3c(cc2n1)NC[C@H]1CCCC[C@H]31`: affinity at Androgen receptor [1] was put at a Ki of 0.015 µM. Besides, it took 0.002 µM to reach a half-maximal effect at Androgen receptor [3] (EC50). At Androgen receptor [4], this compound registered an IC50 of more than 10 µM.
On to `Oc1cc(C(F)(F)F)c2cc3c(cc2n1)NCCC3`, for which affinity at Androgen receptor [1] was put at a Ki of 0.019 µM. On Androgen receptor [2], this compound displayed an IC50 of 0.012 µM. On Androgen receptor [3], the response was half-maximal at 0.317 µM (EC50).
The corresponding values for `O=c1cc(C(F)(F)F)c2cc3c(cc2[nH]1)NC[C@@H]1CCC[C@H]31` are 0.008 µM, more than 10 µM and 0.009 µM.
The corresponding values for `CCC1CCNc2cc3c(cc21)c(C(F)(F)F)cc(=O)n3C` (stereo unspecified) are 0.009 µM, 0.02 µM and more than 10 µM.
The corresponding values for `CC(C)C[C@H]1c2cc3c(C(F)(F)F)cc(=O)[nH]c3cc2NC[C@@H]1C` (relative stereo) are 0.072 µM, 0.029 µM and 0.056 µM.
The compound `CC1c2cc3c(C(F)(F)F)cc(O)nc3cc2NC[C@H]1C` (stereo partly specified) returned a Ki at Androgen receptor [1] of 0.008 µM. A half-maximal response on Androgen receptor [3] (EC50) required 0.022 µM. For the same compound, the IC50 against Androgen receptor [4] was more than 10 µM.
`O=c1cc(C(F)(F)F)c2cc3c(cc2[nH]1)NCCC3c1cc(C(F)(F)F)cc(C(F)(F)F)c1` (stereo unspecified) registered a Ki at Androgen receptor [1] of more than 1 µM. This compound yielded an IC50 on Androgen receptor [2] of 0.251 µM. On Androgen receptor [3], this compound gave an EC50 of more than 10 µM.
Taken in the same sequence, the figures for `CCC1CCN(C)c2cc3c(cc21)c(C(F)(F)F)cc(=O)n3C` (stereo unspecified) were 0.263 µM, 0.216 µM and more than 10 µM.
Turning to `CCC1CCN(C)c2cc3[nH]c(=O)cc(C(F)(F)F)c3cc21` (stereo unspecified), the Ki at Androgen receptor [1] is 0.63 µM. Besides, at Androgen receptor [2], the IC50 is more than 10 µM. Moreover, at Androgen receptor [3], the EC50 came out at 0.158 µM.
Taken in the same sequence, the figures for `CCC1(CC)CCNc2cc3nc(O)cc(C(F)(F)F)c3cc21` were 0.058 µM, 0.073 µM and more than 10 µM.
As for `CC[C@H]1c2cc3c(C(F)(F)F)cc(=O)[nH]c3cc2NC[C@H]1C` (relative stereo), at Androgen receptor [1], the Ki stood at 0.027 µM. At Androgen receptor [3], the EC50 was 0.007 µM. Also, at Androgen receptor [4], the IC50 is more than 10 µM.
`CCC1c2cc3c(C(F)(F)F)cc(=O)[nH]c3cc2NC[C@@H]1C` (stereo partly specified) had a Ki on Androgen receptor [1] of 0.008 µM. For the same compound, at Androgen receptor [2], the IC50 turned out to be 2.71 µM. The compound also came in with an EC50 at Androgen receptor [3] of 0.007 µM.
Taken in the same sequence, the figures for `CC1(C)CCNc2cc3[nH]c(=O)cc(C(F)(F)F)c3cc21` were 0.012 µM, 0.016 µM and 0.068 µM.
Compound `C[C@H]1CNc2cc3nc(O)cc(C(F)(F)F)c3cc2C1CCC(F)(F)F` (stereo partly specified) showed a Ki at Androgen receptor [1] of 0.002 µM. On Androgen receptor [3], a half-maximal response (EC50) required 0.013 µM. The IC50 against Androgen receptor [4] was 0.061 µM.
At Androgen receptor [1], `CC1c2cc3c(C(F)(F)F)cc(O)nc3cc2NC[C@@H]1C` (stereo partly specified) had a Ki of 0.016 µM. At Androgen receptor [3], the midpoint of the response, the EC50, lay at 0.01 µM. For the same compound, the IC50 on Androgen receptor [4] was more than 10 µM.
In the case of `CC1CCNc2cc3nc(O)cc(C(F)(F)F)c3cc21` (stereo unspecified), the affinity at Androgen receptor [1], expressed as Ki, was 0.009 µM. Besides, inhibition against Androgen receptor [2] was half-maximal at 0.259 µM (IC50). Further, the midpoint of the response at Androgen receptor [3], the EC50, lay at 0.015 µM.
Taken in the same sequence, the figures for `C[C@@H]1CNc2cc3[nH]c(=O)cc(C(F)(F)F)c3cc2[C@@H]1CCC(F)(F)F` were more than 1 µM, 0.063 µM and 0.082 µM.
Regarding `CC(C)CC1CCNc2cc3nc(O)cc(C(F)(F)F)c3cc21` (stereo unspecified), the Ki at Androgen receptor [1] is 0.022 µM. At Androgen receptor [3], this compound yielded an EC50 of 0.025 µM. The compound also displayed an IC50 against Androgen receptor [4] of more than 10 µM.
